Earlier results on 13 compounds are cited in PubChem BioAssay AID1259410 (Chemical Carcinogenesis Research Information System (CCRIS), 2018).

The structures appear in SMILES notation.

In this data set the test system is rodent tumor promotion studies, tumor incidence. Kind of data set: CCRIS tumor promotion studies.
Setting [1] is: Carcinogen: 7,12-DIMETHYLBENZ(A)ANTHRACENE, Doses [Carcinogen]: TOP, Route [Carcinogen]: DERMAL, Route [Promoter]: DERMAL, Species: MOUSE, Strain/Sex: FEMALE.

Take `C#C[C@]1(O)CC[C@H]2[C@@H]3CCc4cc(O)ccc4[C@H]3CC[C@@]21C`: the outcome by setting is: (Carcinogen: 3,2'-DIMETHYL-4-AMINOBIPHENYL, 13394-86-0, Doses [Carcinogen]: 100 MG/KG 1/WK FOR 20 WK, Doses [Promoter]: 0, 0.75 PPM IN DIET FOR DURATION OF STUDY (STUDY DURATION: 50 WK), Route [Carcinogen]: SUBCUTANEOUS, Route [Promoter]: ORAL, Species: HAMSTER, Strain/Sex: SYRIAN/FEMALE) “gallbladder: adenoma or adenocarcinoma”; (Carcinogen: 3,2'-DIMETHYL-4-AMINOBIPHENYL, 13394-86-0, Doses [Carcinogen]: 100 MG/KG 1/WK FOR 20 WK, Doses [Promoter]: 0, 0.75 PPM IN DIET FOR DURATION OF STUDY (STUDY DURATION: 50 WK), Route [Carcinogen]: SUBCUTANEOUS, Route [Promoter]: ORAL, Species: HAMSTER, Strain/Sex: SYRIAN/MALE) “gallbladder: adenoma or adenocarcinoma”; (Carcinogen: 7,12-DIMETHYLBENZ[A]ANTHRACENE (DMBA) [57-97-6]AND N-BIS(2-HYROXYPROPYL)NITROSOSAMINE (DHPN) [53609-64-6], Doses [Carcinogen]: DMBA-SINGLE DOSE OF 50 MG/KG BW AT 7 WKS OF AGE, DHPN- 0.2% IN WATER WKS 6-14 OF AGE (STUDY DURATION: 27 WKS FOR MALES;, Doses [Carcinogen]: DMBA-SINGLE DOSE OF 50 MG/KG BW AT 7 WKS OF AGE, DHPN- 0.2% IN WATER WKS 6-14 OF AGE (STUDY DURATION: 27 WKS FOR MALES;, Doses [Promoter]: 0, 0.2, 1% IN DIET (STUDY DURATION: 27 AND 36 WKS FOR MALES AND FEMALES RESPECTIVELY), Doses [Promoter]: 0, 0.2, 1% IN DIET (STUDY DURATION: 27 AND 36 WKS FOR MALES AND FEMALES RESPECTIVELY), Route [Carcinogen]: ORAL (DMBA, GAVAGE; DHPN, DRINKING WATER), Route [Promoter]: MATERNAL MILK TO 3 WKS OF AGE, DIET FROM WKS 3 TO 6 OF AGE, Species: RAT, Strain/Sex: F344/FEMALE, MALE) “negative”; (Carcinogen: DIETHYLNITROSAMINE, 55-18-5, Doses [Carcinogen]: 100 MG/KG ONCE, Doses [Promoter]: 0, 10 PPM (0.5 MG/KG/D) 2 MO POST CARCINOGEN DOSE AND CONTINUING FOR 8 MO (STUDY DURATION: 12 MO), Route [Carcinogen]: INTRAPERITONEAL, Route [Promoter]: ORAL, Species: RAT, Strain/Sex: CD-1/FEMALE) “liver: carcinoma/neoplastic nodules”; (Carcinogen: DIETHYLNITROSAMINE, 55-18-5, Doses [Carcinogen]: 100 MG/KG ONCE, Doses [Promoter]: 0, 10 PPM (0.5 MG/KG/D) 2 MO POST CARCINOGEN DOSE AND CONTINUING FOR 8 MO (STUDY DURATION: 12 MO), Route [Carcinogen]: INTRAPERITONEAL, Route [Promoter]: ORAL, Species: RAT, Strain/Sex: CD-1/MALE) “liver: carcinoma/neoplastic nodules”; (Carcinogen: DIETHYLNITROSAMINE, 55-18-5, Doses [Carcinogen]: 200 MG/KG ONCE, Doses [Promoter]: 0, 160-210 UG/KG BW DAILY FROM RELEASE PELLETS FOR 30 WK BEGINNING 2 WK POST CARCINOGEN DOSE (STUDY DURATION: 30 WK), Route [Carcinogen]: INTRAPERITONEAL, Route [Promoter]: SUBCUTANEOUS, Species: RAT, Strain/Sex: WISTAR/FEMALE) “liver: hepatocellular carcinoma”.
For the compound `CC(C)=CCC/C(C)=C/CC/C(C)=C/CC/C=C(\C)CC/C=C(\C)CCC=C(C)C`, the outcome (Carcinogen: 7,12-DIMETHYLBENZ(A)ANTHRACENE, Doses [Carcinogen]: TOP, Route [Carcinogen]: DERMAL, Route [Promoter]: DERMAL, Species: MOUSE, Strain/Sex: MALE) is on record as “integumentary system (skin)”.
For the compound `NC[C@@H]1O[C@H](O[C@H]2[C@@H](O)[C@H](O[C@@H]3[C@@H](O)[C@H](N)C[C@H](N)[C@H]3O[C@H]3O[C@H](CN)[C@@H](O)[C@H](O)[C@H]3N)O[C@@H]2CO)[C@H](N)[C@@H](O)[C@@H]1O`, under “Carcinogen: AZOXYMETHANE, 25843-45-2, Doses [Carcinogen]: 8 MG/KG 1/WK FOR 8 WK, Doses [Promoter]: 0, 100, 200 PPM IN DRINKING WATER BEGINNING 2 WK PRIOR TO CARCINOGEN TREATMENT AND CONTINUING FOR DURATION OF STUDY (STU, Doses [Promoter]: 0, 100, 200 PPM IN DRINKING WATER BEGINNING 2 WK PRIOR TO CARCINOGEN TREATMENT AND CONTINUING FOR DURATION OF STUDY (STU, Route [Carcinogen]: SUBCUTANEOUS, Route [Promoter]: ORAL, Species: RAT, Strain/Sex: F344/FEMALE”, the outcome was “colon: adenocarcinoma”.
With `Oc1ccc(F)cc1`, the outcome under setting [1] is listed as “integumentary system (skin)”.
With `Clc1c(Cl)c(Cl)c(Cl)c(Cl)c1Cl`, the outcome is, setting by setting: (Carcinogen: DIETHYLNITROSAMINE, 55-18-5, Doses [Carcinogen]: 0.015% IN DRINKING WATER FOR 3 WK, Doses [Promoter]: 0, 0.02% IN DIET (10.5 MG/KG/D) FOR 30 WK BEGINNING 2 WK AFTER LAST CARCINOGEN DOSE (STUDY DURATION: 35 WK), Route [Carcinogen]: ORAL, Route [Promoter]: ORAL, Species: RAT, Strain/Sex: F344/MALE) “liver: hepatocellular carcinoma”; (Carcinogen: DIETHYLNITROSAMINE, 55-18-5, Doses [Carcinogen]: 0.015% IN DRINKING WATER FOR 3 WK, Doses [Promoter]: 0, 0.02% IN DIET (12 MG/KG/D) FOR 30 WK BEGINNING 2 WK AFTER LAST CARCINOGEN DOSE (STUDY DURATION: 35 WK), Route [Carcinogen]: ORAL, Route [Promoter]: ORAL, Species: RAT, Strain/Sex: F344/FEMALE) “liver: hepatocellular carcinoma”.
Turning to `C=C(/C=C/C=C(/CO)[C@@H]1CC[C@]2([C@H](CCCO)/C(=C(/C)C=O)CC[C@]2(C)O)[C@@H]1O)CCC=C(C)C`, the outcome (Carcinogen: 7,12-DIMETHYLBENZ[A]ANTHRACENE, 57-97-6, Doses [Carcinogen]: 100 UG ONCE, Doses [Promoter]: 0, 400 NMOL 2/WK FOR 19 WK BEGINNING 1WK POST CARCINOGEN DOSE (STUDY DURATION: 20 WK), Route [Carcinogen]: DERMAL, Route [Promoter]: DERMAL, Species: MOUSE, Strain/Sex: CD-1/FEMALE) was “skin: tumor”.
As for `CN[C@@H]1C[C@H]2O[C@@](C)([C@@H]1OC)n1c3ccccc3c3c4c(c5c6ccccc6n2c5c31)C(=O)NC4`, the outcome (Carcinogen: 7,12-DIMETHYLBENZ[A]ANTHRACENE, 57-97-6, Doses [Carcinogen]: 100 UG IN 100 µL ACETONE TO THE DORSAL SKIN ONCE, Doses [Promoter]: 0, 10, 50 UG IN 100 µL ACETONE TO THE DORSAL SKIN 2/WK FOR 29 WK BEGINNING 1 WK POST CARCINOGEN DOSE (STUDY DURATION: 30, Doses [Promoter]: 0, 10, 50 UG IN 100 µL ACETONE TO THE DORSAL SKIN 2/WK FOR 29 WK BEGINNING 1 WK POST CARCINOGEN DOSE (STUDY DURATION: 30, Route [Carcinogen]: DERMAL, Route [Promoter]: DERMAL, Species: MOUSE, Strain/Sex: CD-1/FEMALE) is listed as “skin: tumor”.
`CCCCCCCCCCCCCC`: the outcome under setting [1] was “integumentary system (skin)” and the outcome (Carcinogen: BENZO(A)PYRENE, Doses [Carcinogen]: TOP, Route [Carcinogen]: DERMAL, Route [Promoter]: DERMAL, Species: MOUSE, Strain/Sex: FEMALE) is “integumentary system (skin)”.
Regarding `Cc1ccc(C)c(O)c1`, under setting [1], the outcome is recorded as “integumentary system (skin)”.
Regarding `CCCCCCCC/C=C\CCCCCCCC(=O)O`, the outcome (Carcinogen: 7,12-DIMETHYLBENZ(A)ANTHRACENE, Doses [Carcinogen]: TOP, Route [Carcinogen]: DERMAL, Route [Promoter]: DERMAL, Species: MOUSE, Strain/Sex: MALE,FEMALE) is “integumentary system (skin)”.
`C[S-].C[S-].N#[O+].N#[O+].N#[O+].N#[O+].[Fe].[Fe]`: the outcome (Carcinogen: 7,12-DIMETHYLBENZ[A]ANTHRACENE, 57-97-6, Doses [Carcinogen]: 100 NMOL IN 0.2 ML ACETONE ONCE, Doses [Promoter]: 300 NMOL 2/WK FOR 37 WK (STUDY DURATION: 37 WK), Route [Carcinogen]: DERMAL, Route [Promoter]: DERMAL, Species: MOUSE, Strain/Sex: BALB/FEMALE) is given as “skin: papilloma or carcinoma”; the outcome (Carcinogen: 7,12-DIMETHYLBENZ[A]ANTHRACENE, 57-97-6, Doses [Carcinogen]: 100 NMOL IN 0.2 ML ACETONE ONCE, Doses [Promoter]: 450 NMOL 2/WK FOR 37 WK (STUDY DURATION: 37 WK), Route [Carcinogen]: DERMAL, Route [Promoter]: DERMAL, Species: MOUSE, Strain/Sex: BALB/FEMALE) was “skin: papilloma or carcinoma”; the outcome (Carcinogen: DIETHYLNITROSAMINE, 55-18-5, Doses [Carcinogen]: 25 MG/WK FOR 2 WK, Doses [Promoter]: 6 MG 2/WK FOR 114-669 D BEGINNING 2 WK POST LAST CARCINOGEN DOSE (STUDY DURATION: 669 D), Route [Carcinogen]: GAVAGE, Route [Promoter]: GAVAGE, Species: RAT, Strain/Sex: WISTAR) was “forestomach: papilloma”.
Consider `O=S1(=O)N=C(O)c2ccccc21`, for which the outcome is “urinary bladder: carcinoma” (Carcinogen: N-[4-(5-NITRO-2-FURYL)-2-THIAZOLYL]FORMAMIDE, 24554-26-5, Doses [Carcinogen]: 0.2% IN DIET FOR 6 WK, Doses [Promoter]: 0, 3.12% IN PROLAB DIET FOR 72 WK BEGINNING POST CARCINOGEN TREATMENT (STUDY DURATION: 78 WK), Route [Carcinogen]: ORAL, Route [Promoter]: ORAL, Species: RAT, Strain/Sex: F344/MALE) and “urinary bladder: carcinoma, carcinoma or papilloma” (Carcinogen: N-[4-(5-NITRO-2-FURYL)-2-THIAZOLYL]FORMAMIDE, 24554-26-5, Doses [Carcinogen]: 0.2% IN DIET FOR 6 WK, Doses [Promoter]: 0, 5.2% IN PROLAB DIET FOR 72 WK BEGINNING POST CARCINOGEN TREATMENT (STUDY DURATION: 78 WK), Route [Carcinogen]: ORAL, Route [Promoter]: ORAL, Species: RAT, Strain/Sex: F344/MALE).
Take `CN(C)CCC=C1c2ccccc2CCc2ccccc21`: under “Carcinogen: 7,12-DIMETHYLBENZ[A]ANTHRACENE, 57-97-6, Doses [Carcinogen]: 20 MG IN 2 ML PEANUT OIL ONCE, Doses [Promoter]: 0, 80 MG/M2 5 D/WK FOR 15 WK BEGINNING POST CARCINOGEN DOSE (STUDY DURATION: 15 WK), Route [Carcinogen]: GAVAGE, Route [Promoter]: INTRAPERITONEAL, Species: RAT, Strain/Sex: SPRAGUE-DAWLEY/FEMALE”, the outcome is on record as “mammary gland: tumor”.
